According to patent EP4741383A1, “COMPOUND AND USE THEREOF AS ANTI-CANCER DRUG” (Tyligand Bioscience (Shanghai) Limited, priority 2023, dated 2025):

What was measured:
[1] = target: T1, SHP2 enzyme (catalytic domain, amino acid sequence 224-528) (Homo sapiens, UniProt Q06124); assay: SHP2 enzyme inhibition assay (DiFMUP substrate, fluorescence); format: biochemical; conditions: for IC50: SHP2 catalytic domain, DiFMUP substrate, 30 min pre-incubation, read-out: S HP2 I C50; for SHP2 IC50 times lower than control compound 11a-1: relative to 11a-1, IC50 = 0.108 µM
T1 construct: purchased GenScript
T1 sequence (Q06124 224-528): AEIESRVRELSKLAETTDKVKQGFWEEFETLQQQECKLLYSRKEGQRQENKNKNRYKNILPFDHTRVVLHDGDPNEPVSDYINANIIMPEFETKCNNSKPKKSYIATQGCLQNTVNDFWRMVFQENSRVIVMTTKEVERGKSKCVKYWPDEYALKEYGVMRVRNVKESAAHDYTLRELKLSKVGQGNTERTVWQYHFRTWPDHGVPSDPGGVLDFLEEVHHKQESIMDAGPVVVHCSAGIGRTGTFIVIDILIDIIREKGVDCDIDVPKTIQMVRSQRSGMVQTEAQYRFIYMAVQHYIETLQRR
Method in brief: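 SHP2 catalytic domain (aa 224-528) preincubated 30 min at room temperature with compounds (10-point 3-fold series) in HEPES pH 7.2 buffer with NaCl, EDTA, DTT, BSA, Brij35. DiFMUP from 50 µM working solution added, 5 min reaction; fluorescence 340/450 nm; IC50 from nonlinear dose-response fit.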

KYSE520 = assay: CellTiter-Glo cell proliferation inhibition, KYSE520; format: cell-based, human; conditions: for IC50: Homo sapiens, KYSE-520, KYSE520 cells, 120 hours, CellTiter-Glo
Source text: In this study, the CellTiter-Glo® Luminescent Cell Viability Assay kit from Promega was used to evaluate the inhibitory effects of the disclosed compounds on the proliferation of cell lines KYSE520 (a human esophageal squamous cell carcinoma cell line dependent on SHP2 for growth), MeWo (a human malignant melanoma cell line), and MV4-11 (an RTK-mutant human acute monocytic leukemia cell line).
KYSE520 cells (Nanjing Kebaio Biotechnology Co., Ltd., Catalog #CBP60658) were thawed by rapidly shaking the cryovial in a 37 °C water bath to thaw within 1 minute. The thawed cell suspension was mixed homogeneously with RPMI 1640 medium (HyClone, Catalog #SH30027.01) containing 10% FBS (ExCell, Catalog #FND500), centrifuged at 1000 rpm for 5 minutes, and the supernatant was discarded. The cell pellet was resuspended in 5 mL of complete culture medium (RPMI 1640 medium containing 10% FBS) and placed in a cell culture flask with 25 cm^2 of bottom area, then cultured in a cell culture incubator at 37 °C, 95% humidity, and 5% CO2. Cell passaging was performed when the cell confluence reached approximately 80%. During cell passaging, the old culture medium was discarded, the cells were washed once with DPBS (Thermo Fisher, Catalog #14190-144), and 1 mL of trypsin (Thermo Fisher, Catalog #25200072) was added to digest the cells. When the cells dispersed into single cells and detached from the bottom of the culture flask, 3 mL of fresh complete culture medium was added to stop the digestion. After gently pipetting the cell suspension, 1/5 of the cell suspension was retained, 5 mL of fresh complete culture medium was added, and after mixing, the cells were placed in a cell culture flask for further culture. Cell plating was performed when the cell confluence again reached approximately 80%. During cell plating, following the cell passaging method, 1/5 of the cell suspension was retained for continued culture, and the remaining 4/5 of the cell suspension was placed in a 15 mL centrifuge tube. Cell viability was determined using the trypan blue exclusion method to ensure that cell viability was above 90%. A cell suspension with a density of 2.22 × 10^4 cells/mL was prepared using complete culture medium, and 135 µL of the cell suspension was added to a 96-well transparent flat-bottom black-walled cell culture plate (Greiner, Catalog #655090), resulting in a cell density of 3000 viable cells per well. A control group containing only complete culture medium without cells and compounds (i.e., culture medium control) and a control group containing cells but no compound (i.e., cell control) were set up. The cell plates were incubated overnight in a cell culture incubator. First, a 10 mM stock solution of the compound (Example compound and positive control compound 11a-1) in DMSO (Damas-beta, catalog #75927R) was serially diluted 3-fold to the 9th concentration, and a 10th concentration containing only DMSO (without compound) was also prepared as a control. Then, the DMSO solutions containing different concentrations of the compound were diluted 100-fold with complete culture medium, resulting in a 1% DMSO concentration in each solution. Finally, 15 µL of each solution was added to the corresponding wells of the cell culture plate, resulting in a starting compound concentration of 10 µM, with a 3-fold dilution between adjacent concentrations, and a final DMSO concentration of 0.1% in the cell culture plate. The cell plates were then incubated in the cell culture incubator for another 120 hours.
For endpoint detection, CellTiter-Glo reagent (Promega, catalog number #G7573, CellTiter-Glo® Luminescent Cell Viability Assay Kit) was melt and each cell plate was moved to room temperature for equilibration for 30 minutes. 75 µL (KYSE520 cells) or 50 µL (MeWo cells and MV 4-11 cells) of CellTiter-Glo was added to each well of the corresponding cell plate. The plates were shaken on a track-mounted shaker for 2 minutes to fully lyse the cells. […]

Row | Compound | IC50 [1] | SHP2 IC50 times lower than control compound 11a-1 [1] | IC50 (KYSE520) | IC50 against KYSE-520 cells, fold lower than 11a-1 (KYSE520; relative to 11a-1 (1.23 µM))
1 | O=C(Nc1ccc(-c2csc(CO)c2)cc1)C(=O)Nc1ccc(-c2cc3cc(F)c(-c4nnn[nH]4)cc3n2C2CCC2)cc1 [Example 1] | 66 nM | – | 0.095 µM | –
2 | N#CCc1cc(-c2ccc(NC(=O)C(=O)Nc3ccc(-c4cc5cc(F)c(-c6nnn[nH]6)cc5n4C4CCC4)cc3)cc2)cs1 [Example 2] | 64 nM | – | 0.141 µM | –
3 | CC1(n2c(-c3ccc(NC(=O)C(=O)Nc4ccc(-c5cnn(C6COC6)c5)cc4)cc3)cc3cc(F)c(-c4nnn[nH]4)cc32)CC1 [Example 6] | 73 nM | – | 0.065 µM | –
4 | CC1(n2c(-c3ccc(NC(=O)C(=O)Nc4ccc(-c5cnn(C6CCOCC6)c5)cc4)cc3)cc3cc(F)c(-c4nnn[nH]4)cc32)CC1 [Example 7] | 49 nM | – | 0.071 µM | –
5 | Cn1c(-c2cccc(NC(=O)C(=O)Nc3ccc(-c4ccsc4)cc3)c2)c(I)c2cc(C(=O)O)c(O)cc21 [Example 11a-1, reference compound] | 108 nM | – | 1.23 µM | –
6 | O=C(Nc1ccc(-c2cc3cc(F)c(-c4nnn[nH]4)cc3n2C2CCC2)cc1)C(=O)Nc1ccc(N2CCC(CO)CC2)cc1 [Example 23] | 102 nM | – | – | –
7 | O=C(Nc1ccc(-c2cc3cc(F)c(-c4nnn[nH]4)cc3n2C2CCC2)cc1)C(=O)Nc1ccc(N2CCC(CCO)CC2)cc1 [Example 25] | 59 nM | – | 0.056 µM | –
8 | CC1(n2c(-c3ccc(NC(=O)C(=O)Nc4ccc(N5CCC(CCO)CC5)cc4)cc3)cc3cc(F)c(-c4nnn[nH]4)cc32)CCC1 [Example 26] | 61 nM | – | 0.126 µM | –
9 | CC1(CO)CCN(c2ccc(NC(=O)C(=O)Nc3ccc(-c4cc5cc(F)c(-c6nnn[nH]6)cc5n4C4CCC4)cc3)cc2)CC1 [Example 40] | 60 nM | – | 0.168 µM | –
10 | O=C(Nc1ccc(-c2cc3cc(F)c(-c4nnn[nH]4)cc3n2C2CCC2)cc1)C(=O)Nc1ccc(N2CCOCC2)cc1 [Example 47] | 63 nM | – | – | –
11 | O=C(Nc1ccc(-c2cc3cc(F)c(-c4nnn[nH]4)cc3n2C2CCC2)cc1)C(=O)Nc1ccc(N2CC3(CCOCC3)C2)cc1 [Example 57] | 68 nM | – | 0.164 µM | –
12 | O=C(Nc1ccc(-c2cc3cc(F)c(-c4nnn[nH]4)cc3n2C2CCC2)cc1)C(=O)Nc1ccc(N2CCC3(COC3)C2)cc1 [Example 59] | 62 nM | – | 0.119 µM | –
13 | O=C(Nc1ccc(-c2cc3cc(F)c(-c4nnn[nH]4)cc3n2C2CCC2)cc1)C(=O)Nc1ccc(N2CCC3(CCCOC3)C2)cc1 (stereo not shown) [Example 62] | 65 nM | – | 0.193 µM | –
14 | CC1(n2c(-c3ccc(NC(=O)C(=O)Nc4ccc(N5CCC6(CCOC6)CC5)cc4)cc3)cc3cc(F)c(-c4nnn[nH]4)cc32)CCC1 [Example 68] | 48 nM | – | 0.057 µM | –
15 | CC1(n2c(-c3ccc(NC(=O)C(=O)Nc4ccc(N5CCC6(CCOC6)CC5)cc4)cc3)cc3cc(F)c(-c4nnn[nH]4)cc32)CC1 [Example 70] | 50 nM | – | 0.085 µM | –
16 | O=C(Nc1ccc(-c2cc3cc(F)c(-c4nnn[nH]4)cc3n2C2CCC2)cc1)C(=O)Nc1ccc(N2CCC3(CCCOC3)CC2)cc1 [Example 74] | 65 nM | – | 0.116 µM | –
17 | CC1(O)CCC2(CC1)CN(c1ccc(NC(=O)C(=O)Nc3ccc(-c4cc5cc(F)c(-c6nnn[nH]6)cc5n4C4CCC4)cc3)cc1)C2 [Example 83] | 58 nM | – | 0.163 µM | –
18 | O=C(Nc1ccc(-c2cc3cc(F)c(-c4nnn[nH]4)cc3n2C2CCC2)cc1)C(=O)Nc1ccc(N2CCC3(CC(O)C3)C2)cc1 (stereo not shown) [Example 89] | 157 nM | – | 0.062 µM | –
19 | O=C(Nc1ccc(-c2cc3cc(F)c(-c4nnn[nH]4)cc3n2C2CCC2)cc1)C(=O)Nc1ccc(N2CCC3(CCC(O)C3)C2)cc1 (stereo not shown) [Example 92] | 51 nM | – | 0.13 µM | –

Further lines, with some results ahead:

Row | IC50 [1] | SHP2 IC50 times lower than control compound 11a-1 [1] | Compound | IC50 (KYSE520) | IC50 against KYSE-520 cells, fold lower than 11a-1 (KYSE520; relative to 11a-1 (1.23 µM))
20 | 29 nM | 3-4 times | O=C(Nc1ccc(-c2ccsc2)cc1)C(=O)Nc1ccc(-c2cc3cc(F)c(-c4nnn[nH]4)cc3n2C2CCC2)cc1 [Example 4] | – | –
21 | 48 nM | – | O=C(Nc1ccc(-c2cc3cc(F)c(-c4nnn[nH]4)cc3n2C2CCC2)cc1)C(=O)Nc1ccc(N2CCC(CO)C2)cc1 (stereo not shown) [Example 12] | 0.121 µM | –
22 | 45 nM | – | O=C(Nc1ccc(-c2cc3cc(F)c(-c4nnn[nH]4)cc3n2C2CCC2)cc1)C(=O)Nc1ccc(N2CCC(CCO)C2)cc1 (stereo not shown) [Example 14] | 0.113 µM | –
23 | 48 nM | – | CC1(CO)CCN(c2ccc(NC(=O)C(=O)Nc3ccc(-c4cc5cc(F)c(-c6nnn[nH]6)cc5n4C4CCC4)cc3)cc2)C1 (stereo not shown) [Example 16] | 0.151 µM | –
24 | 27 nM | 3-4 times | O=C(Nc1ccc(-c2cc3cc(F)c(-c4nnn[nH]4)cc3n2C2CCC2)cc1)C(=O)Nc1ccc(N2CCC(C3COC3)CC2)cc1 [Example 20] | 0.036 µM | 34 fold
25 | 48 nM | – | CC(O)C1CCN(c2ccc(NC(=O)C(=O)Nc3ccc(-c4cc5cc(F)c(-c6nnn[nH]6)cc5n4C4CCC4)cc3)cc2)CC1 (stereo not shown) [Example 29] | 0.076 µM | –
26 | 41 nM | – | CC(C)(O)C1CCN(c2ccc(NC(=O)C(=O)Nc3ccc(-c4cc5cc(F)c(-c6nnn[nH]6)cc5n4C4CCC4)cc3)cc2)CC1 [Example 33] | 0.042 µM | –
27 | 45 nM | – | O=C(Nc1ccc(-c2cc3cc(F)c(-c4nnn[nH]4)cc3n2C2CCC2)cc1)C(=O)Nc1ccc(N2CC3(CCCOC3)C2)cc1 [Example 55] | 0.108 µM | –
28 | 41 nM | – | O=C(Nc1ccc(-c2cc3cc(F)c(-c4nnn[nH]4)cc3n2C2CCC2)cc1)C(=O)Nc1ccc(N2CCC3(CCOC3)C2)cc1 (stereo not shown) [Example 61] | 0.126 µM | –
29 | 34 nM | 3-4 times | O=C(Nc1ccc(-c2cc3cc(F)c(-c4nnn[nH]4)cc3n2C2CCC2)cc1)C(=O)Nc1ccc(N2CCC3(CCOC3)CC2)cc1 [Example 67] | 0.086 µM | –
30 | 46 nM | – | O=C(Nc1ccc(-c2cc3cc(F)c(-c4nnn[nH]4)cc3n2C2CC2)cc1)C(=O)Nc1ccc(N2CCC3(CCOC3)CC2)cc1 [Example 69] | 0.189 µM | –
31 | 40 nM | – | O=C(Nc1ccc(-c2cc3cc(F)c(-c4nnn[nH]4)cc3n2C2CCC2)cc1)C(=O)Nc1ccc(N2CCC3(CCOCC3)CC2)cc1 [Example 76] | 0.096 µM | –
32 | 20 nM | 3-4 times | CC1(n2c(-c3ccc(NC(=O)C(=O)Nc4ccc(N5CCC6(CCOCC6)CC5)cc4)cc3)cc3cc(F)c(-c4nnn[nH]4)cc32)CCC1 [Example 77] | 0.049 µM | –
33 | 31 nM | 3-4 times | CC1(O)CC2(CCN(c3ccc(NC(=O)C(=O)Nc4ccc(-c5cc6cc(F)c(-c7nnn[nH]7)cc6n5C5CCC5)cc4)cc3)CC2)C1 [Example 94] | 0.115 µM | –
34 | 26 nM | – | O=C(Nc1ccc(-c2ccsc2)cc1)C(=O)Nc1ccc(-c2cc3cnc(-c4nnn[nH]4)nc3n2C2CCC2)cc1 [Example 131] | – | –
